Counter-ions that a name gives are not always drawn.
## CCOCC1(F)CCN([C@@H](c2ccc(C(F)(F)F)cc2CN(Cc2cc(C(F)(F)F)cc(C(F)(F)F)c2)c2nnn(C)n2)C(C)C)CC1 (as salt: mesylate) [Example 213, (N-[3,5-bis(trifluoromethyl)benzyl]-N-[2-{(1R)-1-[4-(ethoxymethyl)-4-fluoropiperidin-1-yl]-2-methylpropyl}-5-(trifluoromethyl)benzyl]-2-methyl-2H-tetrazol-5-amine)]
  melting point: 95 °C
